From patent publication EP2774915A1, “New derivatives of resveratrol” (Mattarei, Andrea, priority 2013, dated 2014)
Where two headings read alike, the source gives them in different places.

What was measured:
[1] = pH 5
Method: (§1) Solubility in aqueous media. A calibration curve is constructed via HPLC analysis of a series of solutions of the compound of interest at known concentrations in a suitable solvent. A known amount (excess) of solid compound is placed in a 20-mL vial to which a 5 mL aliquot of 1 mM acetate buffer at pH 5 is then added. The contents are stirred at 25°C for 24 hours. After a 4-hour decantation period, 1 mL of the supernatant is filtered through a PTFE 0.45 µm filter, diluted with 2 v/v of acetonitrile and analyzed by HPLC. The entire procedure is repeated twice with the same sample, at 24-hour intervals, to verify the invariance of the result.

[2] = Solubility in aqueous media (excess solid stirred in buffer, HPLC of filtered supernatant); conditions: 1 mM acetate buffer at pH 5, 25°C, 24 hours stirring
Method: as §1

[3] = Stability to oxidation: reaction with DPPH radical, absorbance at 520 nm; assay type: physicochemical; conditions: 20 nmoles of DPPH in methanol, absorbance at 520 nm after 40 min (Fig. 5)
Method: At time zero, 20 nmoles of DPPH and the specified amount of resveratrol or of its derivative were mixed in methanol. Absorbance was measured after 40 min.
The susceptibility to oxidation can be assessed by studying c) the reaction with the 1,1-diphenyl-2-picrylhydrazyl (DPPH) radical.
DPPH is a stable free radical with an absorbance maximum at 520 nm (purple). Upon reaction with polyphenols it is converted to DPPHH (yellow) and this change of colour is an indication of the extent of the reaction which has taken place. The assays were conducted using 96-well plates following Fukumoto and Mazza (2000), measuring absorbance with a Tecan Infinite 200 plate reader.

SMILES	Solubility in water [1]	reaction with DPPH [3]	also measured
O=C(NC(Cc1ccccc1)C(=O)O)Oc1ccc(C=Cc2cc(OC(=O)NC(Cc3ccccc3)C(=O)O)cc(OC(=O)NC(Cc3ccccc3)C(=O)O)c2)cc1 (centres unmarked) [Resv(HOPhe-C)3, 3,4',5-tri-[N-(phenylalanyl)-carbamoyl]-resveratrol]	below detection limit		
CNC(=O)Oc1ccc(C=Cc2cc(OC(=O)NC)cc(OC(=O)NC)c2)cc1 [Resv(Me-C)3, 3,4',5-tri-[N-methyl-carbamoyl]-resveratrol]			Solubility in water [2]: below detection limit
CCCCCCCCC=CCCCCCCCCNC(=O)Oc1ccc(C=Cc2cc(OC(=O)NCCCCCCCCC=CCCCCCCCC)cc(OC(=O)NCCCCCCCCC=CCCCCCCCC)c2)cc1 [Resv(Oleyl-C)3, 3,4',5-tri-[N-(octadec-9-enyl)-carbamoyl]-resveratrol]	below detection limit		
COCCOCCOCCNC(=O)Oc1ccc(C=Cc2cc(OC(=O)NCCOCCOCCOC)cc(OC(=O)NCCOCCOCCOC)c2)cc1 [Resv(TGME-C)3, 3,4',5-tri-[N-methoxytri-(ethyleneglycol)-carbamoyl] resveratrol]		does not react at all with DPPH	
Oc1ccc(C=Cc2cc(O)cc(O)c2)cc1 [resveratrol]		stoichiometric oxidation	
